≈ marks a conversion by molar mass, not a printed value.

Among the data in ChEMBL document CHEMBL1150838, “Cytotoxic constituents of the fruits of Cananga odorata” (J Nat Prod, 2001) are IC50 values, retold here.

One assay deals with HepG2. Nature of the assay: Cytotoxicity against human HepG2 cells by MTT assay. Format: functional, cell-based. In general terms: Tetrazolium dyes change colour on reduction, which living cells bring about.
The nature of assay [1]: Cytotoxicity against human HepG2(2.2.15) cells by MTT assay. The class given is functional, cell-based.

Consider `C[C@@H]1O[C@@H](OC(C)(C)[C@@H]2CC[C@@]3(C)CCC[C@@](C)(O)[C@@H]3C2)[C@H](O)[C@H](O)[C@H]1O`, for which the half-inhibitory concentration (IC50) in the assay with HepG2 amounted to 0.01 µg/mL (≈ 0.0259 µM); in assay [1] it was 0.36 µg/mL (≈ 0.931 µM).

In the case of `CC1=C2C[C@H](C(C)(C)O[C@@H]3O[C@@H](C)[C@H](O)[C@@H](O)[C@H]3O)CC[C@@]2(C)CCC1`, the IC50 in the assay on HepG2 came to 3.9 µg/mL (≈ 10.6 µM); in assay [1] it was 10.6 µg/mL (≈ 28.8 µM).

For the compound `CC1=C2C[C@H](C(C)(C)O)CC[C@@]2(C)CCC1`, the IC50 was 1.5 µg/mL (≈ 6.75 µM) in the assay with HepG2 and 0.01 µg/mL (≈ 0.045 µM) in assay [1].

Take `Cc1ccc2c(n1)C[C@H](C(C)(C)O)CC[C@H]2C` [CANANODINE]: the half-inhibitory concentration (IC50) came out at 0.22 µg/mL (≈ 0.943 µM) in the assay on HepG2 and 3.8 µg/mL (≈ 16.3 µM) in assay [1].

Turning to `Cc1ccnc2c1C(=O)c1ccccc1C2=O` [CLEISTOPHOLINE], the values for the IC50 (in the assay with HepG2; in assay [1]) were 0.22 µg/mL (≈ 0.986 µM) and 0.54 µg/mL (≈ 2.42 µM), respectively.

As to `COc1cc(/C=C/C(=O)NCCc2ccc(O)cc2)ccc1O` [N-TRANS-FERULOYL TYRAMINE], the half-maximal inhibitory concentration (IC50) with HepG2 came out at 6.6 µg/mL (≈ 21.1 µM); in assay [1], 1.9 µg/mL (≈ 6.06 µM).

As a reminder, the IC50 is the concentration at which inhibition is half-maximal. A lower IC50 goes with greater potency.
